Results: US20250000903A1, “EXPANSION PROCESSES AND AGENTS FOR TUMOR INFILTRATING LYMPHOCYTES” (Iovance Biotherapeutics, Inc., priority 2021, published 2025)

Columns and labels:
Assay type in all cases: cell-based, human
[1] = test system: tumor-infiltrating lymphocytes (TIL); assay: Phenotypic characteristics of final TIL product expanded with AKTi; conditions: AKTi 1 μM
Description: (§1) Patient tumors from different indications were received, fragmented, and subjected to an expansion protocol for TIL manufacturing. Different doses (0.3 μM and 1 μM) of the pan-AKT inhibitor (AKTi) ipatasertib were added to the culture during ex vivo expansion. The expansion potential, as well as the phenotypic and functional characteristics of TIL were evaluated on the final TIL product.

[2] = test system: tumor-infiltrating lymphocytes (TIL); assay: TIL ex vivo expansion with AKTi ipatasertib: expansion and viability; conditions: AKTi 1 μM during ex vivo expansion
Description: as §1

[3] = test system: tumor-infiltrating lymphocytes (TIL); assay: Functional characteristics of final TIL product expanded with AKTi; conditions: AKTi treatment during ex vivo expansion
Description: as §1

Structure (SMILES): CC(C)NC[C@@H](C(=O)N1CCN(c2ncnc3c2[C@H](C)C[C@H]3O)CC1)c1ccc(Cl)cc1 [AKTi, ipatasertib]
- expression of CD38 and the transcription factors T-bet and Tox ([1]; CD39-CD69- cells): reduced
- population of less differentiated CD39-CD69- cells ([1]; present even after re-stimulation): doubled
- expansion of TIL relative to control [2]: equivalent
- viability of TIL relative to control [2]: equivalent
- cytotoxicity [3]: increased
- frequency of IFNγ+TNFα+CD8+ T cells [3]: increase
